Entries after “also recorded” stand apart in the source; their conditions may differ.
Experiments:
CPT-11 induced diarrhea = CPT-11 induced diarrhea in tumor-bearing mice; assay type: in vivo, Balb/cJ mice; settings: 3 mg/kg/day oral with CPT-11 50 mg/kg/day i.p.; CT26 tumor-bearing mice (FIG. 6A)
Experimental: (§1) FIGS. 6A and B show the effects of 17 (TCH-3511) on diarrhea and antitumor activity of CPT-11. Mice were inoculated with CT26 cells on day −7. Either water or 17 (TCH-3511) 3 mg/kg/day was orally administrated per day throughout the experimental period (day 0 onward). Mice were given daily intraperitoneal either CPT-11 treatment (50 mg/kg/day) or saline staring on day 2. Diarrhea level and tumor size was scored every other day.
(§2) 17 (TCH-3511) was given to mice to test whether inhibition of intestinal βG by bacterial inhibitor 17 (TCH-3511) eliminates CPT-11-induced diarrhea and maintain the therapeutic efficacy in combination with CPT-11 in tumor-bearing mice. CT26 murine colon adenocarcinoma cells were s.c. implanted into Balb/cJ mice. After solid tumor formed, 17 (TCH-3511) (3 mg/kg/day) was provided orally along with intraperitoneal injection of CPT-11 (50 mg/kg/day). Signs of diarrhea were according to stool forms and the perianal staining of the anus.

TOP10 E. coli cells = assay: E. coli growth assay (OD600); assay type: cell-based; settings: 100 μM; OD600 at 6 hour after treatment; TOP10 E. coli (FIG. 4)
Experimental: The pyrazolo[4,3-c]quinoline derivatives were examined for effects on the growth of E. coli. TOP10 E. coli cells were grown to an OD600 of 0.35 in LB medium and treated with each inhibitor. E. coli cell cultures were monitored by reading OD600 at 6 hour after treatment. The cell viability were compared to non-inhibitor control group and shown in % control.

endogenous eβG activity = target: T1, endogenous eβG activity (Escherichia coli, UniProt P05804); assay: Endogenous β-glucuronidase activity assay in BL21 E. coli cells; assay type: cell-based; settings: at both low (10 μM) or high concentration (50 μM) (FIG. 2)
T1 construct: endogenous in cells; host or cells: BL21 E. coli
T1 sequence (P05804 whole entry): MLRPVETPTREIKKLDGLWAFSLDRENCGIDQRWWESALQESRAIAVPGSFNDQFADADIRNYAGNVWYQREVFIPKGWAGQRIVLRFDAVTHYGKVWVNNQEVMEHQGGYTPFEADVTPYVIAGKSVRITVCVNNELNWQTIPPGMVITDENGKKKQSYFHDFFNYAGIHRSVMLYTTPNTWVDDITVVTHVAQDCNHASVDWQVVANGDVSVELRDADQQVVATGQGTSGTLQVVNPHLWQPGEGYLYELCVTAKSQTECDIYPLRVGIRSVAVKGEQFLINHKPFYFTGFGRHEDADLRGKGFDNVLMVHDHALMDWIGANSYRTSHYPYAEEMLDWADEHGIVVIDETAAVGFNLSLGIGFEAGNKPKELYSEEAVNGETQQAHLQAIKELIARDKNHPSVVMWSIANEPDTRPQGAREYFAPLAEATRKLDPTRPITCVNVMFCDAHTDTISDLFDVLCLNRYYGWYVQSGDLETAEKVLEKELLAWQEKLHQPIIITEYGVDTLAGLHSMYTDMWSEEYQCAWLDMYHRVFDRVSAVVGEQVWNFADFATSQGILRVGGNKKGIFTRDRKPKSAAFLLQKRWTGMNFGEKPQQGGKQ
Experimental: The pyrazolo[4,3-c]quinoline derivatives were examined for their inhibition against endogenous eβG activity. This assay is similar with the in vitro assay. BL21 E. coli cells were grown to an OD600 of 0.35 in LB medium. E. coli were 4 times diluted and incubated with each inhibitor. The endogenous eβG activity was measured by detecting PNP as described.

intestinal βG activity = assay: In vivo image of intestinal β-glucuronidase activity (FDGlcU pro-probe); design: species or system Balb/cJ mice; settings: mice
Experimental: 17 (TCH-3511) or 32 (TCH-3510) was examined for its inhibition against intestinal βG activity in mice by in vivo image of eβG activity. 5 (TCH-3562), 17 (TCH-3511) or 32 (TCH-3510) was dissolved in ddH2O. Healthy 6-10 week old female Balb/cJ mice were oral administrated with 5 (TCH-3562), 17 (TCH-3511), 32 (TCH-3510) or ddH2O per day (60 μg/200 μl) for five consecutive days. FDGlcU, a βG fluorescent pro-probe was oral feed at the sixth day. The βG activity was detected by in vivo optical imaging system.

[1] = target: T2, human liver-glucuronidase (hβG) (Homo sapiens, UniProt P08236); assay: Inhibition of purified recombinant hβG activity (pNPG substrate, OD420); assay type: biochemical; settings: 10 μM; purified recombinant hβG, pNPG; means ± S.D. of at least three separate experiments; read-out: Percent activity of human liver-glucuronidase at 10 μM (%)
T2 sequence (P08236 23-651): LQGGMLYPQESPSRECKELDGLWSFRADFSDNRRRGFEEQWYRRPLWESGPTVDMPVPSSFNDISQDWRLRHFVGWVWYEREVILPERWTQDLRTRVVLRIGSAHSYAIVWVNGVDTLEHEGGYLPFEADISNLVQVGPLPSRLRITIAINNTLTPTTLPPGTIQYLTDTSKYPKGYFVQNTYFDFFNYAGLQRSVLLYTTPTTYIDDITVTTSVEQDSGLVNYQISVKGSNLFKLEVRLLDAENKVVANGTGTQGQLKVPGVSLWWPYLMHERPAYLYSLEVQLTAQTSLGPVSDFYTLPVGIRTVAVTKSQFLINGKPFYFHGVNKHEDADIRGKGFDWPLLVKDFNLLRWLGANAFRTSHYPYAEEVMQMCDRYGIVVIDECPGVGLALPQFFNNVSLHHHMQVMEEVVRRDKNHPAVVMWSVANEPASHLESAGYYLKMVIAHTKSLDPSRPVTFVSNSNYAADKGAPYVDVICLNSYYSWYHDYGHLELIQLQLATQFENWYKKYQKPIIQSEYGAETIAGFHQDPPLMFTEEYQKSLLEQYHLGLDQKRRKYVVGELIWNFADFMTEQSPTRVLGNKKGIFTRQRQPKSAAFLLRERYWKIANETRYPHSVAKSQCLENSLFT
Experimental: (§3) The pyrazolo[4,3-c]quinoline derivatives were examined for their inhibition against eβG or hβG activity. Purified recombinant eβG or hβG proteins were incubated with serial dilution of the inhibitors, respectively. The βG activity was determined by color development of a βG substrate, pNPG. The hydrolysis product of pNPG, PNP was measured by OD420.

[2] = tested on: DMH induced tumorigenesis in the intestine; assay: DMH induced tumorigenesis in the intestine; assay type: in vivo, C57BL/6J-APC^MIN/J mice
Experimental: Either water or 17 (TCH-3511) 3 mg/kg/day was orally administrated three times per week throughout the experimental period (8 week). Mice were given intraperitoneal DMH (30 mg/kg/week).
17 (TCH-3511) was given to C57BL/6J-APC^MIN/J mice to check whether prevent DMH-induced intestinal damage and tumorigenesis. 17 (TCH-3511) (3 mg/kg, 3 times/week) was provided orally along with intraperitoneal injection of DMH (30 mg/kg, once/week). After 8 weeks of treatment, mice were sacrificed and the tumor in the intestine was examined.

[3] = tested on: CT26 murine colon adenocarcinoma cells; assay: Anti-tumor efficacy of CPT-11 in CT26 tumor-bearing mice; assay type: in vivo, Balb/cJ mice; settings: 3 mg/kg/day oral with CPT-11 50 mg/kg/day i.p.; CT26 tumors (FIG. 6B)
Experimental: as §1, §2

[4] = target: E. coli β-glucuronidase (eβG) (Escherichia coli, UniProt P05804); assay: Inhibition of purified recombinant eβG activity (pNPG substrate, OD420); assay type: biochemical
Sequence of E. coli β-glucuronidase (eβG) (P05804 whole entry): as the sequence (P05804 whole entry) above
Experimental: as §3

Nc1n[nH]c2c1c(Nc1ccc(F)cc1)nc1ccccc12 [Compound 17, 3-Amino-4-(4-fluorophenylamino)-1H-pyrazolo[4,3-c]quinoline]
Effect on CPT-11 induced diarrhea (CPT-11 induced diarrhea): can reduce CPT-11 induced diarrhea | melting point: 266 to 268 °C | Effects on E. coli growth (TOP10 E. coli cells): no effects on E. coli growth | Inhibition efficacy of endogenous eβG activity compared with βG-Inh (endogenous eβG activity): better inhibition efficacy of endogenous eβG activity than βG-Inh | Inhibition of intestinal βG activity, comparison between compounds (intestinal βG activity; in vivo optical imaging (FIG. 5B)): better than 32 (THC-3510) | Inhibition of intestinal βG activity (fluorescence signal in the intestine) (intestinal βG activity; oral 60 μg/200 μl per day for five days, FDGlcU on sixth day (FIG. 5A), listed as 17 (TCH-3511)): significantly reduced the fluorescence signal in the intestine; also recorded: significantly inhibit intestinal βG activity | remaining activity at 10 µM [1]: 99 ± 1.41% | Number of tumors in the intestine ([2]; 3 mg/kg oral 3 times/week with DMH 30 mg/kg i.p. once/week, after 8 weeks (FIG. 7), DMH only group more than 26): six | Effect on DMH-induced intestinal damage and tumorigenesis ([2]; 3 mg/kg oral 3 times/week with DMH 30 mg/kg/week i.p., 8 weeks (FIG. 7), listed as 17 (TCH-3511)): can reduce DMH-induced intestinal damage and prevent tumorigenesis | Effect on anti-tumor efficacy of CPT-11 treatment [3]: no effects on the anti-tumor efficacy of CPT-11 treatment | Inhibition efficacy of eβG activity compared with βG-Inh ([4]; FIG. 1): better inhibition efficacy of eβG activity than βG-Inh | remaining activity at 10 µM ([4]; read-out: Percent activity of E. coli-glucuronidase at 10 μM (%)): 5 ± 1% | Selective inhibition of eβG versus hβG (in words) ([4]; recombinant eβG and hβG, serial dilution of inhibitors (FIG. 1)): selectively inhibited eβG activity but not hβG

Reference: patent publication US11052072B2, “Pyrazolo[4,3-C] quinoline derivatives for inhibition of β-glucuronidase” (Kaohsiung Medical University, priority 2015, dated 2021)
